Measured values as given in US5900434A, “Method for inhibiting the production of interleukin-1 or tumor necrosis factor-α by administering acanthoic acid” (Korea Institute of Science and Technology, priority 1994, dated 1999).

Legend:
[1] = system: serum glutamic-pyruvic transaminase (sGPT); test: CCl4-induced hepatocirrhosis in rat, serum GPT; assay type: in vivo, Sprague-Dawley rat; conditions: CCl4-treated rat; 0.2 ml orally twice a week, 13 weeks; FIG. 10
Excerpt: Hepatocirrhosis(hepatic sclerosis) is characterized by the fibrosis of whole liver, complete disruption of liver parenchyma by fibrous septa, and formation of regenerative nodules. It is derived mostly from a chronic hepatitis or chronic alcoholism, however, the precise causes thereof are unknown. In a hepatocirrhosis patient, the amount of cytokines, e.g., TNF-α, which is involved in inflammation and fibrosis, is in an increased state; and, therefore, the inhibition of hepatocirrhosis by acanthoic acid may be determined by the inhibitory activity to TNF-α. To induce the experimental hepatocirrhosis in accordance with the method of Nakataukasa, H., et al. as described in J. Clin. Invest., 85, 1833-1843(1990), 1.0 ml/100 g of body weight of CCl4 solution(50% CCl4 +50% corn oil) was injected intraperitoneally to 4 week old male Sprague-Dawley rats twice a week, and 0.2 ml each of methanol extract of A. koreanum Nakai and acanthoic acid was administered orally at the time of the injection of CCl4 twice a week. After 13 weeks from the start of the test, each of the rats was anesthetized with ether and the blood samples were obtained from the heart to determine serum glutamic-oxaloacetic transaminase(sGOT) value and serum glutamic-pyruvic transaminase(sGPT) value(FIG. 10).

[2] = system: TNF-α production in rat alveolar macrophages and lymphocytes; test: Inhibition of TNF-α production in rat alveolar macrophages and lymphocytes; assay type: cell-based; conditions: 10 μg/ml; 100 μg/ml silica, 3 days; FIG. 4
Method: TNF-α dependent L929 fibroblasts(ATCC CCLl) were suspended in RPMI 1640 medium containing 5% FBS and added to the wells of 96-well incubation plate in an amount of 3×10^4 cells/well. The plate was incubated at 37° C. for 2 hours to make the cells adhere to the incubation plate. Then, the medium was removed and 1 μg/ml of actinomycin D(Sigma) and 50 μl of culture dialyzate of monocytes and macrophages obtained in Example 1 were added to each of the wells. The final concentration of FBS in each well was adjusted to 5% and the cells were incubated at 37° C. under 5% CO2 for 24 hours.
When the incubation was completed, the medium was removed and the cells were washed twice with PBS and stained for 5 minutes with 0.5% crystal violet solution in 20% methanol. The cells were washed three times with PBS and dried. Then, 100 μl of 33% acetic acid was added to each of the wells to release the dye, and then the O.D. of sample obtained from each of the wells was determined by using ELISA reader with 570 nm reading filter and 405 nm reference filter. The amount of released dye was calculated from the O.D. value with reference to that of the internal control group, i.e., rHu TNF-α(Genzyme). […]

[3] = system: IL-1 production in human monocytes and macrophages; test: Inhibition of IL-1 production in human monocytes and macrophages (silica-stimulated, thymocyte 3H-thymidine assay); assay type: cell-based; conditions: 0.1 to 100 μg/ml; 100 μg/ml silica, 48 hours; FIG. 2
Method: Normal human peripheral blood was heparin-treated and diluted with equal amount of Hank's balanced salt solution (HBSS: Ca^2+ and Mg^2+ free). The diluted blood was put into a centrifuge tube containing therein Ficoll-Hypaque(Sigma, St. Louis, Mo., U.S.A.) layer having a density of 1.077 piled up on Ficoll-Hypaque layer having a density of 1.119, and then centrifuged at 700×g for 30 minutes to obtain monocytes from the layer between Ficoll-Hypaque layer having a density of 1.077 and serum layer, and neutrophils from the layer between Ficoll-Hypaque layer having a density of 1.077 and that having a density of 1.119. The separated cells were washed twice with 4° C. HBSS(Ca^2+ and Mg^2+ free) and suspended in RPMI 1640 medium(Gibco, Grand Island, N.Y., U.S.A.) containing 10% fetal bovine serum(FBS, Hyclone, Logan, Utah, U.S.A.). The suspensions were added to the wells of 24-well incubation plate(Costar, Cambridge, Mass., U.S.A.) and incubated at 37° C. for 2 hours to obtain monocytes, macrophages and neutrophils. […] The activity of IL-1 in the dialyzate was determined in accordance with the method of Gery described in Cellular Immunology, 64, 293-303(1981) as follows. […] When the incubation was completed, the cells were collected on the glass fiber filter and the amount of incorporated ^3 H-thymidine was determined by liquid scintillation counter(Beckman).

SMILES: C=C[C@@]1(C)CC=C2C(CCC3[C@](C)(C(=O)O)CCC[C@@]23C)C1 (single isomer, unassigned; (-)) [acanthoic acid, (-)-pimara-9(11),15-diene-19-oic acid]
- decrease of sGPT value [1]: more than 40%
- inhibition of production of TNF-α [2]: inhibited
- inhibition of production of IL-1 [3]: inhibited by acanthoic acid in a concentration-dependent mode
